Read-outs that look alike come from different tables or passages of the source.
Tests used:
Myzus persicae = Myzus persicae - spray test (Chinese cabbage leaf discs); type: in vivo; details: 500 g/ha, after 5-6 days
Experimental: • Solvent: 78 parts by weight of acetone • 1.5 parts by weight of dimethylformamide • Emulsifier: alkylaryl polyglycol ether
(§1) To produce a suitable preparation of active compound, 1 part by weight of active compound is dissolved using the stated parts by weight of solvent and made up with water containing an emulsifier concentration of 1000 ppm until the desired concentration is attained. To produce further test concentrations, the preparation is diluted with emulsifier-containing water.
Discs of Chinese cabbage leaves (Brassica pekinensis) infested by all stages of the green peach aphid (Myzus persicae) are sprayed with an active compound preparation of the desired concentration.
After 5-6 days, the efficacy in % is determined. 100% means that all the aphids have been killed; 0% means that no aphids have been killed.

Spodoptera frugiperda = Spodoptera frugiperda - spray test; type: in vivo; details: 500 g/ha, after 7 days, caterpillars on maize leaf discs
Experimental: (§2) • Solvent: 78.0 parts by weight of acetone • 1.5 parts by weight of dimethylformamide • Emulsifier: alkylaryl polyglycol ether
as §1
Leaf discs of maize (Zea mays) are sprayed with an active compound preparation of the desired concentration and, after drying, populated with caterpillars of the armyworm (Spodoptera frugiperda).
After 7 days, the efficacy in % is determined. 100% means that all the caterpillars have been killed; 0% means that no caterpillars have been killed.

[1] = log P by HPLC on a reversed-phase column (C 18), EEC Directive 79/831 Annex V.A8; type: physicochemical; details: for LOGP_NEUTRAL: pH 7.8, 0.001 molar aqueous ammonium hydrogencarbonate/acetonitrile; for chromatographic logP: reversed-phase HPLC column (C 18)
Experimental: The log P values are measured according to EEC Directive 79/831 Annex V.A8 by HPLC (high-performance liquid chromatography) on a reversed-phase column (C 18). Temperature: 55° C.
The LC-MS determination in the acidic range is effected at pH 2.7 using 0.1% aqueous formic acid and acetonitrile (contains 0.1% formic acid) as eluents; linear gradient from 10% acetonitrile to 95% acetonitrile. Called log P (HCOOH) in the table.
LC-MS determination in the neutral range is effected at pH 7.8 with 0.001 molar aqueous ammonium hydrogencarbonate solution and acetonitrile as eluents; linear gradient from 10% acetonitrile to 95% acetonitrile. Called log P (neutral) in the table.
Calibration is carried out using unbranched alkan-2-ones (having 3 to 16 carbon atoms) with known log P values (log P values determined on the basis of the retention times by linear interpolation between two successive alkanones).

Phaedon cochleariae = Phaedon cochleariae - spray test; type: in vivo; details: 500 g/ha, after 7 days, larvae on Chinese cabbage leaf discs
Experimental: as §2, §1
After 7 days, the efficacy in % is determined. 100% means that all the beetle larvae have been killed; 0% means that no beetle larvae have been killed.

Ctenocephalides felis [2] = assay: Ctenocephalides felis - in vitro contact tests with adult cat fleas; type: in vivo; details: 5 μg/cm^2 (=500 g/ha), after 48 h, adult cat fleas dead or moribund
Experimental: For the coating of the test tubes, 9 mg of active compound are first dissolved in 1 ml of acetone p.a. and then diluted to the desired concentration with acetone p.a. 250 μl of the solution are distributed homogeneously on the inner walls and the base of a 25 ml test tube by turning and rocking on an orbital shaker (rocking rotation at 30 rpm for 2 h). With 900 ppm active compound solution and internal surface 44.7 cm^2, given homogeneous distribution, an area-based dose of 5 μg/cm^2 is achieved.
After the solvent has evaporated off, the tubes are populated with 5-10 adult cat fleas (Ctenocephalides felis), sealed with a perforated plastic lid and incubated in a horizontal position at room temperature and ambient humidity. After 48 h, efficacy is determined. To this end, the test tubes are stood upright and the fleas are knocked to the base of the tube. Fleas which remain motionless at the base or move in an uncoordinated manner are considered to be dead or moribund.
100% efficacy means that all the fleas were dead or moribund. 0% efficacy means that no fleas were harmed.

Ctenocephalides felis [3] = assay: Ctenocephalides felis - oral test; type: in vivo; details: 100 ppm in citrated cattle blood, after 2 days, adult cat fleas
Experimental: • Solvent: dimethyl sulphoxide To produce a suitable preparation of active compound, 10 mg of active compound are mixed with 0.5 ml of dimethyl sulphoxide. Dilution with citrated cattle blood gives the desired concentration. About 20 unfed adult cat fleas (Ctenocephalides felis) are placed into a chamber which is closed at the top and bottom with gauze. A metal cylinder whose bottom end is closed with parafilm is placed onto the chamber. The cylinder contains the blood/active compound preparation, which can be imbibed by the fleas through the parafilm membrane. After 2 days, the kill in % is determined. 100% means that all of the fleas have been killed; 0% means that none of the fleas have been killed.

Lucilia cuprina = Lucilia cuprina test; type: in vivo; details: 100 ppm, after 2 days, L1 larvae
Experimental: • Solvent: dimethyl sulphoxide To produce a suitable preparation of active compound, 10 mg of active compound are mixed with 0.5 ml of dimethyl sulphoxide, and the concentrate is diluted with water to the desired concentration. About 20 L1 larvae of the Australian sheep blowfly (Lucilia cuprina) are transferred into a test vessel containing minced horsemeat and the active compound preparation of the desired concentration. After 2 days, the kill in % is determined. 100% means that all the larvae have been killed; 0% means that no larvae have been killed.

Musca domestica = Musca domestica test; type: in vivo; details: after 2 days, adult houseflies
Experimental: • Solvent: dimethyl sulphoxide To produce a suitable preparation of active compound, 10 mg of active compound are mixed with 0.5 ml of dimethyl sulphoxide, and the concentrate is diluted with water to the desired concentration. Vessels containing a sponge treated with sugar solution and the active compound preparation of the desired concentration are populated with 10 adult houseflies (Musca domestica). After 2 days, the kill in % is determined. 100% means that all of the flies have been killed; 0% means that none of the flies have been killed.

[4] = acidic range, pH 2.7, 0.1% aqueous formic acid/acetonitrile, 55° C.
[5] = acidic range, pH 2.7, 0.1% aqueous formic acid/acetonitrile, 55° C., read-out: LOGP_HCOOH
[6] = neutral range, pH 7.8, value in preparation example text, read-out: log P (neutral)

| LOGP_HCOOH [1, 4] | LOGP_NEUTRAL ([1]; neutral range, 55° C.) | chromatographic logP [1, 5] | chromatographic logP [1, 6] | Structure (SMILES) | efficacy (Myzus persicae) | efficacy (Spodoptera frugiperda) | efficacy (Phaedon cochleariae) | efficacy (Ctenocephalides felis [2]) | efficacy (kill) (Ctenocephalides felis [3]) | efficacy (kill) (Lucilia cuprina) | efficacy (kill) (Musca domestica; 20 ppm) | efficacy (kill) (Musca domestica; 4 ppm) |
| --- | --- | --- | --- | --- | --- | --- | --- | --- | --- | --- | --- | --- |
| 2.84 | 2.78 |  |  | CCS(=O)(=O)c1c(-c2nc3cc(C(F)(F)F)cnc3n2C)nc2ccc(C)cn12 [Example I-53] | 100% | 100% |  |  |  |  |  |  |
| 2.93 | 2.83 |  |  | CC[S+]([O-])c1c(-c2nc3cc(C(F)(F)F)ncc3n2C)nc2ccc(Cl)cn12 (stereo not drawn) [Example I-7] | 90% | 100% |  |  |  |  |  |  |
| 3.72 |  |  |  | CCS(=O)(=O)c1c(-c2nc3cc(C(F)(F)F)ccc3n2C)nc2cc(C(F)(F)F)ccn12 [Example I-34] |  | 100% | 100% | 100% |  |  |  |  |
| 2.66 | 2.64 |  |  | CCS(=O)(=O)c1c(-c2nc3cc(C(F)(F)F)ncc3n2C)nc2cc(Cl)ccn12 [Example I-23] |  | 100% | 100% | 100% |  |  |  |  |
| 3.09 | 3.06 |  |  | CCS(=O)(=O)c1c(-c2nc3cc(C(F)(F)F)ncc3n2C)nc2ccc(C(F)(F)F)cn12 [Example I-6] | 90% | 100% | 100% | 100% | 100% | 100% | 90% |  |
|  | 2.62 | 2.59 | 2.62 | CCS(=O)(=O)c1c(-c2nc3cc4c(cc3n2C)OC(F)(F)O4)nc2ccccn12 [Example I-41, 6-[3-(Ethylsulphonyl)imidazo[1,2-a]pyridin-2-yl]-2,2-difluoro-5-methyl-5H-[1,3]dioxolo[4,5-f]benzimidazole] | 90% | 83% | 100% |  |  |  |  |  |
| 2.41 | 2.37 |  |  | CCS(=O)(=O)c1c(-c2nc3cc(C(F)(F)F)ncc3n2C)nc2ccc(OC)cn12 [Example I-54] | 90% | 100% |  |  |  |  |  |  |
| 2.92 | 2.85 |  |  | CC[S+]([O-])c1c(-c2nc3cc(C(F)(F)F)ccc3n2C)nc2ccccn12 (stereo not drawn) [Example I-11] | 90% | 100% | 100% |  |  |  |  |  |
| 2.30 | 2.30 |  |  | CC[S+]([O-])c1c(-c2nc3cc(C(F)(F)F)ncc3n2C)nc2cccc(C(F)(F)F)n12 (stereo not drawn) [Example I-22] | 90% |  | 100% |  |  |  |  |  |
| 2.73 |  |  |  | CCS(=O)(=O)c1c(-c2nc3cc(C(F)(F)F)ccc3n2C)nc2cccc(C)n12 [Example I-46] | 90% |  | 83% |  |  |  |  |  |
| 2.08 | 2.05 |  | 2.07 | CCS(=O)(=O)c1c(-c2nc3cc(C(F)(F)F)ncc3n2C)nc2ccccn12 [Example I-1, 2-(3-Ethylsulphonylimidazo[1,2-a]pyridin-2-yl)-3-methyl-6-(trifluoromethyl)imidazo[4,5-c]pyridine] | 90% | 100% | 83% | 100% | 98% | 100% |  | 85% |
| 2.43 | 2.36 |  |  | CCS(=O)(=O)c1c(-c2nc3cc(C(F)(F)F)ncc3n2C)nc2ccc(C)cn12 [Example I-48] | 90% | 100% |  |  |  |  |  |  |
| 2.67 | 2.61 |  |  | CCS(=O)(=O)c1c(-c2nc3cc(C(F)(F)F)ncc3n2C)nc2ccc(Cl)cn12 [Example I-4] | 90% | 100% |  | 100% | 90% | 100% |  | 80% |
| 2.69 | 2.66 |  |  | CCS(=O)(=O)c1c(-c2nc3cc(C(F)(F)F)ncc3n2C)nc2cccc(C(F)(F)F)n12 [Example I-21] | 100% | 100% | 100% |  |  |  |  |  |
|  | 2.75 | 2.84 | 2.75 | CCSc1c(-c2nc3cc(C(F)(F)F)ncc3n2C)nc2ccccn12 [Example I-2, 2-(3-Ethylsulphanylimidazo[1,2-a]pyridin-2-yl)-3-methyl-6-(trifluoromethyl)imidazo[4,5-c]pyridine] | 90% |  |  |  |  |  |  |  |
| 2.56 | 2.50 |  |  | CCS(=O)(=O)c1c(-c2nc3cc(C(F)(F)F)ncc3n2C)nc2c(Cl)cccn12 [Example I-19] | 90% | 100% | 100% |  |  |  |  |  |
| 3.00 | 2.98 |  |  | CCS(=O)(=O)c1c(-c2nc3cc(C(F)(F)F)ncc3n2C)nc2cc(C(F)(F)F)ccn12 [Example I-17] | 100% | 100% | 100% | 100% | 100% | 100% |  | 80% |
| 3.01 |  |  |  | CCS(=O)(=O)c1c(-c2nc3cc(C(F)(F)F)ccc3n2C)nc2cc(C)ccn12 [Example I-33] |  | 83% |  | 100% |  |  |  |  |
